Counter-ions that a name gives are not always drawn. Like-named read-outs stand apart in the source and are kept apart here.
Tests used:
[1] = in vivo; conditions: for Approx. LD50 /ED50: chemotherapeutic index, mouse oral, N. dubius
Source text: Data on the acute oral toxicity to mice of various single oral doses of the above compounds and several analogs were obtained by conventional procedures, (Table IX hereinafter).

[2] = system: Nematospiroides dubius; test: Anthelmintic efficacy against N. dubius in mice, single oral dose; format: in vivo, Nematospiroides dubius (in albino female mice); conditions: for inhibition in vivo at 0.625 mg/kg: single oral dose 0.625 mg./Kg., adjusted to molar equivalents of tetramisole free base; for inhibition in vivo at 40 mg/kg: single oral dose 40 mg./Kg.; for inhibition in vivo at 4 mg/kg: single oral dose 4.0 mg./Kg.; for inhibition in vivo at 7.5 mg/kg: single oral dose 7.5 mg./Kg.; for inhibition in vivo at 20 mg/kg: single oral dose 20 mg./Kg.
Procedure: Albino female mice are each inoculated with about 20 infectious larvae of Nematospiroides dubius. This nematode is a representative of the economical important trichostrongylis worms of ruminants and other hosts, and of nematodes in general. Twenty-two days after inoculation, groups of four randomly selected mice containing adult N. dubius are given single oral doses of test compounds dissolved or suspended in 0.4 ml. of water per 20 gram mouse. At 26 or 27 days after inoculation, treated mice and in each test four randomly selected groups of untreated mice are necropsied. The number of worms in the small intestine of each mouse are determined by microscopic examination. Average worm numbers for each treated group and for the untreated controls are computed and the percent efficacy determined by the customary formula:
(Average Worms in Control - Average Worms in Treated)/(Average Worms in Control) X 100.

[3] = mouse, in vivo, po, Approx. LD50, mouse oral, Table IX
[4] = mouse, in vivo, po, LD50, mice, adjusted to molar equivalents of tetramisole free base
[5] = single oral dose 40 Mg./Kg., mice
[6] = single oral dose 60 Mg./Kg., mice
[7] = single oral dose 80 Mg./Kg., mice
[8] = single oral dose 100 Mg./Kg., mice
[9] = Heligmosomoides polygyrus, po, as Base, single oral dose, mice, > indicates inactive at dose shown, read-out: Approx. ED50
[10] = Heligmosomoides polygyrus, po, mouse oral, Table IX, read-out: Approx. ED50 vs. N. dubius
[11] = Heligmosomoides polygyrus, po, single oral dose 1.25 mg./Kg., molar-adjusted, read-out: Percent Nematospiroides Activity
[12] = Heligmosomoides polygyrus, po, single oral dose 2.0 mg./Kg., molar-adjusted, read-out: Percent Nematospiroides Activity
[13] = Heligmosomoides polygyrus, po, single oral dose 5.0 mg./Kg., molar-adjusted, read-out: Percent Nematospiroides Activity
[14] = Heligmosomoides polygyrus, po, single oral dose 10 mg./Kg., molar-adjusted, read-out: Percent Nematospiroides Activity
[15] = Heligmosomoides polygyrus, po, read-out: Percent Nematospiroides Activity
[16] = Heligmosomoides polygyrus, po, molar-adjusted, read-out: Percent Nematospiroides Activity
[17] = single oral dose 50 Mg./Kg., mice
[18] = single oral dose 200 Mg./Kg., mice
[19] = single oral dose 5.0 mg./Kg., molar-adjusted
[20] = single oral dose 10 mg./Kg., molar-adjusted

Row | SMILES | Approx. LD50 /ED50 ([1]; Table IX) | LD50 [1, 3] [mg/kg] | LD50 [1, 4] [mg/kg] | ED50 [2, 9] [mg/kg] | ED50 [2, 10] [mg/kg] | inhibition in vivo at 1.25 mg/kg [2, 11] [%] | inhibition in vivo at 2 mg/kg [2, 12] [%] | inhibition in vivo at 5 mg/kg [2, 13] [%] | inhibition in vivo at 10 mg/kg [2, 14] [%] | other results
1 | CCCC(=O)Nc1cccc(C2CN3CCSC3=N2)c1 (racemic) [m-NH--CO--C3 H7n dl] | 20 | 40 | 30 to 40 | 2 | 2 | 43 | 58 | 99 | 100 | Dead/Total [1, 5]: 3/5; Dead/Total [1, 6]: 4/5; Dead/Total [1, 7]: 4/5; Dead/Total [1, 8]: 5/5
2 | CC(C)(C)CC(=O)Nc1cccc(C2CN3CCSC3=N2)c1 (stereo not drawn) [HNCOCH2 C(CH3)2] | – | – | 80 to 100 | – | – | – | – | 59 | 98 | –
3 | CC(=O)Nc1cccc(C2CN3CCSC3=N2)c1 (stereo not drawn) [m-NH--CO--CH3 dl, 3'-(2,3,5,6-Tetrahydroimidazo[2,1-b]thiazol-6-yl)acetanilide] | – | > 10 | – | 4 | 3 to 4 | – | – | – | – | –
4 | COc1ccc(C(=O)Nc2cccc(C3CN4CCSC4=N3)c2)cc1 (stereo not drawn) [Table XII b1843] | – | – | 60 to 80 | – | – | 58 | 95 | 100 | – | inhibition in vivo at 0.625 mg/kg [2, 15]: 56%
5 | CC(C)N(C)c1cccc(C2CN3CCSC3=N2)c1 (racemic) [CH3 N--CH(CH3)2, 6-[m-(isopropylmethylamino)phenyl]-2,3,5,6-tetrahydroimidazo[2,1-b]thiazol] | – | – | 40 to 60 | – | – | – | – | – | – | inhibition in vivo at 40 mg/kg [2, 16]: 78%; inhibition in vivo at 60 mg/kg ([2]; Heligmosomoides polygyrus, po, single oral dose 60 mg./Kg., molar-adjusted, read-out: Percent Nematospiroides Activity): 88%
6 | CC(=O)Nc1cccc(C2CN3CCSC3=N2)c1 (stereo not drawn) [HN--CO--CH3] | – | – | 40 to 60 | – | – | – | – | – | 100 | inhibition in vivo at 4 mg/kg [2, 16]: 66%
7 | O=C(Nc1cccc(C2CN3C=CSC3=N2)c1)c1ccccc1 (stereo not drawn) [Table XIV b1987] | – | – | ~120 | – | – | – | – | 94 | 100 | Percent Nematospirides Activity ([2]; single oral dose 2.5 mg./Kg., molar-adjusted): 73%
8 | CC(C)(C)C(=O)Nc1cccc(C2CN3CCSC3=N2)c1 (stereo not drawn) [m-NH-CO-C(CH3)2 l] | 100 | 100 | ~100 | 1 | 1 | 60 | 69 | 90 | 100 | Dead/Total [1, 17]: 0/6; Dead/Total [1, 8]: 2/6; Dead/Total [1, 18]: 6/6
9 | CCCCCCC(=O)Nc1cccc(C2CN3CCSC3=N2)c1 (stereo not drawn) [HNCO(CH2)5 CH3] | – | – | – | – | – | – | – | – | – | LD50 ([1]; mice, adjusted to molar equivalents of tetramisole free base): 20 to 25 mg/kg; Percent Nematospiroides Activity ([2]; single oral dose 1.25 mg./Kg., molar-adjusted): 53%; Percent Nematospiroides Activity ([2]; single oral dose 2.0 mg./Kg., molar-adjusted): 99%; Percent Nematospiroides Activity [2, 19]: 100%; Percent Nematospiroides Activity [2, 20]: 100%
10 | CC(C)C(=O)Nc1cccc(C2CN3CCSC3=N2)c1 (stereo not drawn) [m-NH--CO--CH(CH3)2 l] | 50 | 50 | 60 to 75 | 1 | 1 | 77 | 96 | – | – | Dead/Total [1, 17]: 2/8; Dead/Total [1, 8]: 8/8; inhibition in vivo at 0.625 mg/kg [2, 15]: 30%; inhibition in vivo at 7.5 mg/kg [2, 16]: 97%; Percent Nematospiroides Activity [2, 19]: 100%; Percent Nematospiroides Activity [2, 20]: 100%
11 | O=C(Nc1cccc(C2CN3CCSC3=N2)c1)c1ccccc1 (racemic) [m-NH-CO dl] | 60 | 60 | ~60 | 1 | 1 | 67 | 94 | 100 | 100 | Dead/Total [1, 5]: 0/6; Dead/Total [1, 6]: 3/6; Dead/Total [1, 7]: 4/6; Dead/Total ([1]; single oral dose 120 Mg./Kg., mice): 5/6; inhibition in vivo at 20 mg/kg [2, 16]: 100%
12 | O=C(Nc1cccc(C2CN3CCSC3=N2)c1)c1ccco1 (stereo not drawn) [Table XII b1864] | – | – | 80 to 100 | – | – | – | 37 | 85 | 99 | inhibition in vivo at 20 mg/kg [2, 16]: 100%
13 | O=C(Nc1cccc(C2CN3CCSC3=N2)c1)c1cccc(Cl)c1 (stereo not drawn) [Table XII b1851] | – | – | 80 to 100 | – | – | 52 | 95 | 97 | – | inhibition in vivo at 0.625 mg/kg [2, 15]: 40%
14 | O=C(CCl)Nc1cccc(C2CN3CCSC3=N2)c1 (stereo not drawn) [H--N--CO--CH2 Cl] | – | – | 50 to 60 | – | – | 84 | – | 100 | – | inhibition in vivo at 40 mg/kg [2, 16]: 100%; inhibition in vivo at 50 mg/kg ([2]; Heligmosomoides polygyrus, po, single oral dose 50 mg./Kg., molar-adjusted, read-out: Percent Nematospiroides Activity): 100%
15 | O=CNc1cccc(C2CN3C=CSC3=N2)c1 (stereo not drawn) [5,6-dihydro HNCHO] | – | – | ~150 | – | – | – | – | – | 100 | inhibition in vivo at 4 mg/kg [2, 16]: 64%
16 | CC(C)Nc1cccc(C2CN3CCSC3=N2)c1 (stereo not drawn) [m-NH-CH(CH3)2 dl, 6-(m-isopropylaminophenyl)-2,3,5,6-tetrahydroimidazo[2,1-b]thiazole] | 8 | ~40 | ~50 | 5 | 5 | – | – | 55 | 100 | Dead/Total [1, 5]: 2/6; Dead/Total [1, 6]: 3/6; Dead/Total [1, 7]: 4/6; Dead/Total [1, 8]: 5/6; inhibition in vivo at 7.5 mg/kg [2, 16]: 89%; inhibition in vivo at 20 mg/kg [2, 16]: 100%; inhibition in vivo at 40 mg/kg [2, 16]: 100%
17 | Cl.Cl.Nc1cccc(C2CN3C=CSC3=N2)c1 (stereo not drawn) [5,6-dihydro m-NH2 dl, 6-(m-Aminophenyl)-5,6-dihydroimidazo[2,1-b]thiazole dihydrochloride] | – | 10 | ~80 | 1.5 | 1.5 | – | 53 | 96 | 100 | –
18 | O=C(Nc1cccc(C2CN3CCSC3=N2)c1)c1ccc(Cl)cc1 (stereo not drawn) [Table XII b1847] | – | – | ~80 | – | – | 63 | 90 | 100 | – | inhibition in vivo at 0.625 mg/kg [2, 15]: 40%
19 | COC(=O)Nc1cccc(C2CN3CCSC3=N2)c1 (stereo not drawn) [m-NH-CO--OCH3 l, l-m-(2,3,5,6-tetrahydroimidazo[2,1-b]thiazol-6-yl)carbanilicacid methyl ester, hydrochloride] | 20 | ~150 | ~125 | 7.5 | 7.5 | – | – | 28 | 61 | Dead/Total [1, 17]: 0/5; Dead/Total [1, 8]: 0/5; Dead/Total ([1]; single oral dose 150 Mg./Kg., mice): 1/5; Dead/Total [1, 18]: 5/5; inhibition in vivo at 20 mg/kg [2, 16]: 100%; inhibition in vivo at 40 mg/kg [2, 16]: 100%
